Test results published in patent US20260083851A1 (AVILAR THERAPEUTICS, INC., priority 2022, published 2026).
Like-named read-outs stand apart in the source and are kept apart here. Starred links: 1 amine or outer side, 2 acyl side, 3 side chain; linkers in the order of their positions; H or OH if unused. Positions of bridges follow the written chain, without caps; N, C: chain ends. Non-standard residues stand in square brackets, D forms with d. Residues, ends and D or L forms follow the SMILES beside them. ξ: configuration not given here. *: point of attachment. X1 = O=C(CCOCC(COCCC(=O)NCCOCCOCCOCCOCC1OCC(Nc2cncc(C(F)(F)F)n2)C(O)C1O)NCC(=O)*)NCCOCCOCCOCCOCC1OCC(Nc2cncc(C(F)(F)F)n2)C(O)C1O; ξPro(4ξ-NH2) = O=C(C1CC(N[*:3])CN1[*:1])[*:2]

Tests used:
[1] = biological target: T1, ASGPR (Homo sapiens, UniProt P07306); experiment: ASGPR SPR binding
T1 construct: biotin (biotinylated)
T1 sequence (P07306 1-291): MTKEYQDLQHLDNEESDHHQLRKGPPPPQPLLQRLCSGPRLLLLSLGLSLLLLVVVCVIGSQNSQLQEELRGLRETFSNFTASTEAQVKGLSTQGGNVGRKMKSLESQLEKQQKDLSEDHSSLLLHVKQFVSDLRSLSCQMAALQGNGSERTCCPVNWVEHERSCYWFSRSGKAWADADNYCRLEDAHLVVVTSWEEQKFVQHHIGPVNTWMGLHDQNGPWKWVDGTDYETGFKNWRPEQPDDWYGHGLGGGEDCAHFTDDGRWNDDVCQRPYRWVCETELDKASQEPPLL

[2] = biological target: IgG; experiment: IgG SPR binding; details: second table, read-out: IgG KD
[3] = biological target: T2, ASGPR receptor on HepG2 cells (ternary complex with AF488-labeled antibody) (Homo sapiens, UniProt P07306); experiment: Ternary complex formation assay (flow cytometry, cell-associated AF488 fluorescence); format: cell-based
T2 construct: host or cells: HepG2
T2 sequence (P07306 1-291): T1 sequence (P07306 1-291)
T2 sequence (P07307 1-311 partner): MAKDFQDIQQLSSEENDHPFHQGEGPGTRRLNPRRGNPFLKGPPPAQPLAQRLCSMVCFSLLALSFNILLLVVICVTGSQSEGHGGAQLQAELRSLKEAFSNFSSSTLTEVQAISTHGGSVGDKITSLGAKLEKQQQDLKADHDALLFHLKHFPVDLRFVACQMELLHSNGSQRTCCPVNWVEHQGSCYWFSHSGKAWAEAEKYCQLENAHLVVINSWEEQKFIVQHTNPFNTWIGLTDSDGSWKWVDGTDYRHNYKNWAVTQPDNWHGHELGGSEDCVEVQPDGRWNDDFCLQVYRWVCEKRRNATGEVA
Procedure: Human IgG (Sigma-Aldrich, 14506) was covalently labeled with Alexa Fluor 488 using the Alexa Fluor™ 488 Protein Labeling Kit (Thermo Fisher, A10235) following the manufacturer's instructions. HepG2 cells (ATCC, HB-8065) were cultured to about 70% confluence and harvested by trypsinization. Single cell suspensions of HepG2 cells were plated in 96 well plates at 1×10^5 cells/well in cell culture media (DMEM supplemented with 10% FBS) and placed at 4° C. For studies using human IgG, cells were incubated with 100 nM AF488-labeled anti-human IgG and serial dilutions of IgG-based degrader for 1 hour at 4° C. For studies using DNP, cells were incubated with 100 nM AF488-labeled polyclonal rabbit anti-dinitrophenyl (DNP) antibodies (ThermoFisher) and serial dilutions of DNP-based degrader for 1 hour at 4° C. After washing once with ice-cold PBS containing 0.1% BSA and 0.1% sodium azide, cells were resuspended in 150 uL PBS+0.1% BSA and cell-associated AF488 fluorescence was measured by flow cytometry using the iQue® Screener PLUS Flow Cytometer (IntelliCyt). […]

[4] = read-out: ASGPR KD, second table
[5] = read-out: TCF EC50, 100 nM AF488-labeled antibody, 1 hour at 4° C., the 25th table, class symbols
[6] = second table, read-out: ASGPR KD

Row | SMILES | Kd [1, 4] | Kd [2] | EC50 [3, 5] | Kd [1, 6] | EC50 ([3]; read-out: TCF EC50, 100 nM AF488-labeled antibody, 1 hour at 4° C., the 25th table, numeric bounds, nM from footnote)
1 | CC(C)CC1NC(=O)C(Cc2cnc[nH]2)NC(=O)C(Cc2c[nH]c3ccccc23)NC(=O)C(C)NC(=O)C2CSSCC(NC(=O)C(Cc3c[nH]c4ccccc34)NC(=O)C(C(C)C)NC(=O)C(CC(C)C)NC(=O)C(CCC(=O)O)NC(=O)CNC1=O)C(=O)NC(C(C)O)C(=O)N1CCCC1C(=O)N1CC(NC(=O)CNC(COCCC(=O)NCC3OCC(Nc4cncc(C(F)(F)F)n4)C(O)C3O)COCCC(=O)NCC3OCC(Nc4cncc(C(F)(F)F)n4)C(O)C3O)CC1C(=O)NC(CC(=O)O)C(=O)N2 (stereo not drawn) [compound 41] | < 100 nM | < 100 nM | < 100 nM |  | 
2 | CC(C)CC1NC(=O)C(Cc2cnc[nH]2)NC(=O)C(Cc2c[nH]c3ccccc23)NC(=O)C(C)NC(=O)C2CSSCC(NC(=O)C(Cc3c[nH]c4ccccc34)NC(=O)C(C(C)C)NC(=O)C(CC(C)C)NC(=O)C(CCC(=O)O)NC(=O)CNC1=O)C(=O)NC(C(C)O)C(=O)N1CCCC1C(=O)N1CC(NC(=O)c3ccc(N4CCC(CN5CCN(CC6OCC(Nc7cncc(C(F)(F)F)n7)C(O)C6O)CC5)CC4)nn3)CC1C(=O)NC(CC(=O)O)C(=O)N2 (stereo not drawn) [compound 42] |  | < 100 nM | < 100 nM | < 100 nM | 
3 | CC(C)CC1NC(=O)C(Cc2cnc[nH]2)NC(=O)C(Cc2c[nH]c3ccccc23)NC(=O)C(C)NC(=O)C2CSSCC(NC(=O)C(Cc3c[nH]c4ccccc34)NC(=O)C(C(C)C)NC(=O)C(CC(C)C)NC(=O)C(CCC(=O)O)NC(=O)CNC1=O)C(=O)NC(C(C)O)C(=O)N1CCCC1C(=O)N1CC(NC(=O)c3ccc(C(=O)NCC4OCC(Nc5cncc(C(F)(F)F)n5)C(O)C4O)cc3)CC1C(=O)NC(CC(=O)O)C(=O)N2 (stereo not drawn) [compound 43] |  | < 100 nM | > 1000 nM | < 100 nM | 
4 | CC(C)CC1NC(=O)C(Cc2cnc[nH]2)NC(=O)C(Cc2c[nH]c3ccccc23)NC(=O)C(C)NC(=O)C2CSSCC(NC(=O)C(Cc3c[nH]c4ccccc34)NC(=O)C(C(C)C)NC(=O)C(CC(C)C)NC(=O)C(CCC(=O)O)NC(=O)CNC1=O)C(=O)NC(C(C)O)C(=O)N1CCCC1C(=O)N1CC(NC(=O)c3ccc(N4CCC(CN5CCN(CC6OCC(Nc7cncc(C(F)(F)F)n7)C(O)C6O)CC5)CC4)cc3)CC1C(=O)NC(CC(=O)O)C(=O)N2 (stereo not drawn) [compound 44] |  | < 100 nM | < 100 nM | < 100 nM | 
5 | CC(C)CC1NC(=O)C(Cc2cnc[nH]2)NC(=O)C(Cc2c[nH]c3ccccc23)NC(=O)C(C)NC(=O)C2CSSCC(NC(=O)C(Cc3c[nH]c4ccccc34)NC(=O)C(C(C)C)NC(=O)C(CC(C)C)NC(=O)C(CCC(=O)O)NC(=O)CNC1=O)C(=O)NC(C(C)O)C(=O)N1CCCC1C(=O)N1CC(NC(=O)C3CCC(C(=O)NCC4OCC(Nc5cncc(C(F)(F)F)n5)C(O)C4O)CC3)CC1C(=O)NC(CC(=O)O)C(=O)N2 (stereo not drawn) [compound 45] |  | < 100 nM | > 1000 nM | 100 to 500 nM | 
6 | CC(C)CC1NC(=O)C(Cc2cnc[nH]2)NC(=O)C(Cc2c[nH]c3ccccc23)NC(=O)C(C)NC(=O)C2CSSCC(NC(=O)C(Cc3c[nH]c4ccccc34)NC(=O)C(C(C)C)NC(=O)C(CC(C)C)NC(=O)C(CCC(=O)O)NC(=O)CNC1=O)C(=O)NC(C(C)O)C(=O)N1CCCC1C(=O)N1CC(NC(=O)CNC(COCCC(=O)NCCOCCOCCOCCOCC3OCC(Nc4cncc(C(F)(F)F)n4)C(O)C3O)COCCC(=O)NCCOCCOCCOCCOCC3OCC(Nc4cncc(C(F)(F)F)n4)C(O)C3O)CC1C(=O)NC(CC(=O)O)C(=O)N2 (stereo not drawn) [compound 46] | < 100 nM | < 100 nM | < 100 nM |  | 
7 | CC(C)CC1NC(=O)C(Cc2cnc[nH]2)NC(=O)C(Cc2c[nH]c3ccccc23)NC(=O)C(C)NC(=O)C2CSSCC(NC(=O)C(Cc3c[nH]c4ccccc34)NC(=O)C(C(C)C)NC(=O)C(CC(C)C)NC(=O)C(CCC(=O)O)NC(=O)CNC1=O)C(=O)NC(C(C)O)C(=O)N1CCCC1C(=O)N1CC(NC(=O)c3ccc(-c4ccc(C(=O)NCC5OCC(Nc6cncc(C(F)(F)F)n6)C(O)C5O)cc4)cc3)CC1C(=O)NC(CC(=O)O)C(=O)N2 (stereo not drawn) [compound 49] |  | < 100 nM |  | < 100 nM | > 686 nM
8 | CC(C)CC1NC(=O)C(Cc2cnc[nH]2)NC(=O)C(Cc2c[nH]c3ccccc23)NC(=O)C(C)NC(=O)C2CSSCC(NC(=O)C(Cc3c[nH]c4ccccc34)NC(=O)C(C(C)C)NC(=O)C(CC(C)C)NC(=O)C(CCC(=O)O)NC(=O)CNC1=O)C(=O)NC(C(C)O)C(=O)N1CCCC1C(=O)N1CC(NC(=O)COCCOCC(=O)NCC3OCC(Nc4cncc(C(F)(F)F)n4)C(O)C3O)CC1C(=O)NC(CC(=O)O)C(=O)N2 (stereo not drawn) [compound 50] |  | < 100 nM | < 100 nM | < 100 nM | 
9 | CC(C)CC1NC(=O)C(Cc2cnc[nH]2)NC(=O)C(Cc2c[nH]c3ccccc23)NC(=O)C(C)NC(=O)C2CSSCC(NC(=O)C(Cc3c[nH]c4ccccc34)NC(=O)C(C(C)C)NC(=O)C(CC(C)C)NC(=O)C(CCC(=O)N(C)C)NC(=O)CNC1=O)C(=O)NC(C(C)O)C(=O)N1CCCC1C(=O)N1CC(NC(=O)CNC(COCCC(=O)NCCOCCOCCOCCOCC3OCC(Nc4cncc(C(F)(F)F)n4)C(O)C3O)COCCC(=O)NCCOCCOCCOCCOCC3OCC(Nc4cncc(C(F)(F)F)n4)C(O)C3O)CC1C(=O)NC(CC(=O)O)C(=O)N2 (stereo not drawn) [compound 53] | < 100 nM | < 100 nM | < 100 nM |  | 
10 | CC(C)CC1NC(=O)C(C)NC(=O)CNC(=O)C(CC(C)C)NC(=O)C(Cc2cnc[nH]2)NC(=O)C(Cc2c[nH]c3ccccc23)NC(=O)C(C)NC(=O)C2CSSCC(NC(=O)C(Cc3c[nH]c4ccccc34)NC(=O)C(C(C)C)NC1=O)C(=O)NC(C(C)O)C(=O)N1CCCC1C(=O)N1CC(NC(=O)CNC(COCCC(=O)NCCOCCOCCOCCOCC3OCC(Nc4cncc(C(F)(F)F)n4)C(O)C3O)COCCC(=O)NCCOCCOCCOCCOCC3OCC(Nc4cncc(C(F)(F)F)n4)C(O)C3O)CC1C(=O)NC(C)C(=O)N2 (stereo not drawn) [compound 71] (cyclo(GALVWCTP[ξPro(4ξ-NH2)](X1)ACAWHL); disulfide 6-11; configuration not given here) | < 100 nM | < 100 nM | < 100 nM |  | 
11 | CC(C)CC1NC(=O)C(Cc2cnc[nH]2)NC(=O)C(Cc2c[nH]c3ccccc23)NC(=O)C(C)NC(=O)C2CSSCC(NC(=O)C(Cc3c[nH]c4ccccc34)NC(=O)C(C(C)C)NC(=O)C(CC(C)C)NC(=O)C(CCC(=O)N(C)C)NC(=O)CNC1=O)C(=O)NC(C(C)O)C(=O)N1CCCC1C(=O)N1CC(NC(=O)CNC(COCCC(=O)NCCOCCOCCOCCOCC3OCC(Nc4cncc(C(F)(F)F)n4)C(O)C3O)COCCC(=O)NCCOCCOCCOCCOCC3OCC(Nc4cncc(C(F)(F)F)n4)C(O)C3O)CC1C(=O)NC(C)C(=O)N2 (stereo not drawn) [compound 72] (cyclo(GE(NMe2)LVWCTP[ξPro(4ξ-NH2)](X1)ACAWHL); disulfide 6-11; configuration not given here) | < 100 nM | < 100 nM | < 100 nM |  | 
12 | CC(C)CC1NC(=O)C(Cc2cnc[nH]2)NC(=O)C(Cc2c[nH]c3ccccc23)NC(=O)C(C)NC(=O)C2CSSCC(NC(=O)C(Cc3c[nH]c4ccccc34)NC(=O)C(C(C)C)NC(=O)C(CC(C)C)NC(=O)C(CCC(=O)N(C)C)NC(=O)CNC1=O)C(=O)NC(C(C)O)C(=O)N1CCCC1C(=O)N1CC(NC(=O)CNC(COCCC(=O)NCCOCCOCCOCCOCC3OCC(Nc4cncc(C(F)(F)F)n4)C(O)C3O)COCCC(=O)NCCOCCOCCOCCOCC3OCC(Nc4cncc(C(F)(F)F)n4)C(O)C3O)CC1C(=O)NC(CC(N)=O)C(=O)N2 (stereo not drawn) [compound 73] (cyclo(GE(NMe2)LVWCTP[ξPro(4ξ-NH2)](X1)NCAWHL); disulfide 6-11; configuration not given here) | < 100 nM | < 100 nM | < 100 nM |  | 
13 | CC(C)CC1NC(=O)C(C)NC(=O)CNC(=O)C(CC(C)C)NC(=O)C(Cc2cnc[nH]2)NC(=O)C(Cc2c[nH]c3ccccc23)NC(=O)C(C)NC(=O)C2CSSCC(NC(=O)C(Cc3c[nH]c4ccccc34)NC(=O)C(C(C)C)NC1=O)C(=O)NC(C(C)O)C(=O)N1CCCC1C(=O)N1CC(NC(=O)CNC(COCCC(=O)NCCOCCOCCOCCOCC3OCC(Nc4cncc(C(F)(F)F)n4)C(O)C3O)COCCC(=O)NCCOCCOCCOCCOCC3OCC(Nc4cncc(C(F)(F)F)n4)C(O)C3O)CC1C(=O)NC(CC(N)=O)C(=O)N2 (stereo not drawn) [compound 74] (cyclo(GALVWCTP[ξPro(4ξ-NH2)](X1)NCAWHL); disulfide 6-11; configuration not given here) | < 100 nM | < 100 nM | < 100 nM |  | 
